This is an account of results in patent US20250186410A1, “DUAL INHIBITORS OF TRYPTOPHAN DIOXYGENASES (IDO1 AND TDO) AND THEIR USE IN THERAPY” (ANTIDO THERAPEUTICS INTERNATIONAL SÀRL, priority 2022, published 2025).

Where only a bound is given, the exact number is not on record here.

Data set [1] in a line: MTT cell viability in the cellular IDO1/TDO experiments. The class given is cell-based. To be noted: mouse, read-out: Cytotoxicity IC50. The procedure:
The viability of the cells in each well in the same experiment was determined using the 3-(4,5-dimethylthiazolyl-2-yl)-2,5-diphenyltetrazolium bromide (MTT) colourimetric assay. After the removal of the supernatant for determination of IDO1 inhibition, the cells were incubated with MTT (500 μg/mL) until crystal formation was observed. Plates were centrifuged for 15 min at 2500 g, and then all the supernatant in then wells was discarded. DMSO (100 μL/well) was added to dissolve the crystals and then the absorbance in each well was measured at 570 nm. Cell viability in each well was expressed as a percentage of untreated controls. Triplicate cultures were used for all experiments unless stated otherwise.
The viability of the cells in each well in the same experiment was determined using the 3-(4,5-dimethylthiazolyl-2-yl)-2,5-diphenyltetrazolium bromide (MTT) colourimetric assay.

The target of data set [2] is human TDO (GL261 cells transfected to over-express full length human TDO) (Homo sapiens (Human), UniProt P48775). The data set can be described thus: Cell-based assay for TDO inhibition. To be noted: 24 h; read-out: Cellular TDO IC50. The procedure: Culture supernatant from each well was then transferred into a fresh, flat-bottomed 96-well plate, and kynurenine content was determined as described above for the IDO1 assay, and the concentration that inhibited 50% cellular enzyme activity was calculated.
Chain of human TDO (GL261 cells transfected to over-express full length human TDO) (P48775 whole entry): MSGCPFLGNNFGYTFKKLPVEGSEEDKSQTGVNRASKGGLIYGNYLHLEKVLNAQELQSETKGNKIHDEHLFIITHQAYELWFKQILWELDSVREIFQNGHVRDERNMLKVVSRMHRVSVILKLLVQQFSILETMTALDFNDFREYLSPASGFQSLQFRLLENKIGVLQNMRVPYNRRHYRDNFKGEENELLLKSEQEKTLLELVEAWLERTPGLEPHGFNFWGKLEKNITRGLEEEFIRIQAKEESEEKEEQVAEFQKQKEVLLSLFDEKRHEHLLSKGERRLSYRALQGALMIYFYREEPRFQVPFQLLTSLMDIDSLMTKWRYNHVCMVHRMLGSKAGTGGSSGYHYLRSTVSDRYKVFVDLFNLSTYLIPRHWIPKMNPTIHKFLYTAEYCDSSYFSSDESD

For data set [3], the target named is human IDO1 (LLTC-hIDO1 cells) (Homo sapiens (Human), UniProt P14902). The data set can be described thus: Cell-based assay for IDO1 inhibition. To be noted: 24 h; read-out: Cellular IDO1 IC50. The procedure: Culture supernatant from each well was then transferred into a fresh, flat-bottomed 96-well plate, mixed with trichloroacetic acid (10% final concentration) and incubated for 20 min at 60° C. Plates were then centrifuged (10 min at 2500 g) and the supernatants were then transferred and mixed 1:1 with 4-(dimethylamino)benzaldehyde (20 mg/mL in acetic acid) in a new plate. The absorbance of each well was read at 480 nm, and the concentration that inhibited 50% cellular enzyme activity was calculated.
Chain of human IDO1 (LLTC-hIDO1 cells) (P14902 whole entry): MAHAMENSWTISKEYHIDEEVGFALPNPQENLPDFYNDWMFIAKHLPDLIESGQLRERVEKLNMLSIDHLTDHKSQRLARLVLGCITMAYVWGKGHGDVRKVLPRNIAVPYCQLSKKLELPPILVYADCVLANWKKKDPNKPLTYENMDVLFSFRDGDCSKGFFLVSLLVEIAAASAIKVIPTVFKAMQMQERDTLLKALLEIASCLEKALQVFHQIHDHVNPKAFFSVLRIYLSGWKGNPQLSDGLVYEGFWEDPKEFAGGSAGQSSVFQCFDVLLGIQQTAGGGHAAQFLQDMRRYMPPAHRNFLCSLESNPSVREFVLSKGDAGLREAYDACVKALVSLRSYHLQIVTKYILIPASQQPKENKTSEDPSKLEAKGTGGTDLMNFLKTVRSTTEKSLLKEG

For data set [4], the target named is Recombinant human IDO1 (rhIDO1) (Homo sapiens (Human), UniProt P14902). The experiment in a line: Enzymatic assay for IDO1 activity. Type of data set: biochemical. To be noted: read-out: Isolated IDO1 Enayme Assay IC50. The procedure:
Recombinant human IDO1 (rhIDO1) was expressed and purified from cultures of EC538 strain of E. coli transformed with pREP4 and pQE9-IDO plasmid. Reaction mixes were set up in 384-well microplates containing 50 mM phosphate buffer, 10 mM ascorbic, 10 μM methylene blue, 100 μg/mL catalase, 80 μM TRP, 0.01% Tween 20 (v/v) mixed with rhIDO1 (15 μL) at a final concentration of 9 nM in a total volume of 30 μL assay medium. The plates were incubated at 37° C. for 30 min, and the enzymatic reaction was terminated by adding piperidine (200 mM) and heated at 65° C. for 20 min. Fluorescence intensity was read at λex 400 nm and λem 500 nm. Test compounds were dissolved in 100% DMSO and pre-diluted in assay medium prior to adding rhIDO1. IDO1 inhibition (%) was calculated as
All experiments were carried out in triplicates, and statistical Analyses were conducted in Prism v5 (Graphpad Software, Inc., La Jolla, CA, USA).

The test system of data set [5] is LLC-CR cells. To be noted: cited from earlier work.

Chain of Recombinant human IDO1 (rhIDO1) (P14902 whole entry): as above

Consider `Cc1nc2onc(N)c2c(C)c1Br` [Compound 1, 5-Bromo-4,6-dimethylisoxazolo[5,4-b]pyridin-3-amine], for which the IC50 (as a rule, the concentration at which inhibition is half-maximal) at 24 h in data set [1] was greater than 100 µM. Further, the IC50 in data set [2] was 10 to 100 µM.

With `Cc1nc2onc(N)c2c(C)c1Cl` [Compound 3, 5-Chloro-4,6-dimethylisoxazolo[5,4-b]pyridin-3-amine], the IC50 at 24 h in data set [1] lay within 10 to 100 µM. Also, in data set [2], the IC50 was 10 to 100 µM.

Regarding `Cc1cc(C)c2c(N)noc2n1` [Compound 4, 4,6-Dimethylisoxazolo[5,4-b]pyridin-3-amine], the IC50 at 24 h in data set [1] was greater than 100 µM. Moreover, in data set [2], the concentration for half-maximal inhibition (IC50) lay within 10 to 100 µM.

Turning to `Cc1nc2onc(N)c2c(C)c1C` [Compound 5, 4,5,6-Trimethylisoxazolo[5,4-b]pyridin-3-amine], the IC50 at 24 h in data set [1] is greater than 100 µM. For the same compound, the half-maximal inhibitory concentration (IC50) in data set [3] was 1 to 10 µM; in data set [2], 10 to 100 µM.

Regarding `Nc1noc2ncc(Br)cc12` [Compound 6, 5-Bromoisoxazolo[5,4-b]pyridin-3-amine], the IC50 at 24 h in data set [1] is greater than 100 µM. Besides, the IC50 in data set [2] is less than 1 µM.

`Nc1noc2ncc(Cl)cc12` [Compound 8, 5-Chloroisoxazolo[5,4-b]pyridin-3-amine]: the 50% inhibitory concentration (IC50) at 24 h in data set [1] was greater than 100 µM. Moreover, the IC50 in data set [2] is less than 1 µM.

Take `Nc1noc2nc3ccccc3cc12` [Compound 9, Isoxazolo[5,4-b]quinolin-3-amine]: the IC50 at 24 h in data set [1] lay in the range of 10 to 100 µM. In addition, the IC50 in data set [2] lay within 1 to 10 µM.

With `Nc1noc2nc3c(cc12)CCCC3` [Compound 10, 5,6,7,8-Tetrahydroisoxazolo[5,4-b]quinolin-3-amine], the IC50 in data set [4] is greater than 100 µM; in data set [2], 10 to 100 µM. Moreover, in data set [1], the IC50 at 24 h was greater than 100 µM.

`Nc1noc2nc(Cl)ccc12` [Compound 11, 6-Chloroisoxazolo[5,4-b]pyridin-3-amine]: the IC50 at 24 h in data set [1] is greater than 100 µM.

Take `Nc1noc2ncncc12` [Compound 12, Isoxazolo[5,4-d]pyrimidin-3-amine]: the half-maximal inhibitory concentration (IC50) in data set [4] is greater than 100 µM; in data set [2], 1 to 10 µM. The IC50 at 24 h in data set [1] is greater than 100 µM.

As for `Nc1noc2ncc(F)cc12` [Compound 14, 5-Fluoroisoxazolo[5,4-b]pyridin-3-amine], the IC50 in data set [4] is greater than 100 µM; in data set [3] it was 1 to 10 µM; in data set [2], 1 to 10 µM. Also, the IC50 at 24 h in data set [1] was greater than 100 µM.

Take `Nc1noc2nc(-c3ccccc3)ccc12` [Compound 15, 6-Phenylisoxazolo[5,4-b]pyridin-3-amine]: the IC50 in data set [4] was greater than 100 µM; in data set [2], 10 to 100 µM. In addition, the half-inhibitory concentration (IC50) at 24 h in data set [1] was greater than 100 µM.

In the case of `Cc1nc2onc(NC(=O)Nc3cccc(C(F)(F)F)c3)c2c(C)c1Cl` [Compound 15B, 1-(5-Chloro-4,6-dimethylisoxazolo[5,4-b]pyridin-3-yl)-3-(3-(trifluoromethyl)phenyl)urea], the 50% inhibitory concentration (IC50) in data set [4] was greater than 100 µM; in data set [3] it was 1 to 10 µM. Also, the IC50 at 24 h in data set [1] is greater than 100 µM.

With `Nc1noc2ncc(I)cc12` [Compound 16, 5-Iodoisoxazolo[5,4-b]pyridin-3-amine], the IC50 at 24 h in data set [1] was greater than 100 µM. Moreover, the IC50 in data set [2] was less than 1 µM.

On to `Nc1noc2ncc(-c3ccccc3)cc12` [Compound 24, 5-Phenylisoxazolo[5,4-b]pyridin-3-amine], for which the IC50 in data set [4] was greater than 100 µM; in data set [3] it was 10 to 100 µM; in data set [2] it was 1 to 10 µM. Also, the IC50 at 24 h in data set [1] is greater than 100 µM.

For the compound `COc1ccc2c(N)noc2n1` [Compound 41, 6-Methoxyisoxazolo[5,4-b]pyridin-3-amine], the IC50 in data set [4] was greater than 100 µM; in data set [3], 1 to 10 µM; in data set [2], 10 to 100 µM. Moreover, the IC50 at 24 h in data set [1] was greater than 100 µM.

Take `Cc1cc(Cl)nc2onc(N)c12` [Compound 42, 6-Chloro-4-methylisoxazolo[5,4-b]pyridin-3-amine]: the figures for the IC50 in data set [4] and in data set [2] were less than 1 µM and 1 to 10 µM, respectively. In data set [1], the IC50 at 24 h is greater than 100 µM.

Regarding `Cc1cnc2onc(N)c2c1` [Compound 44, 5-Methylisoxazolo[5,4-b]pyridin-3-amine], the IC50 in data set [4] was greater than 100 µM; in data set [2] it was less than 1 µM. The IC50 at 24 h in data set [1] is greater than 100 µM.

In the case of `Cc1cc2c(N)noc2nc1C` [Compound 45, 5,6-Dimethylisoxazolo[5,4-b]pyridin-3-amine], the IC50 in data set [4] was greater than 100 µM; in data set [2], 1 to 10 µM. Also, the half-inhibitory concentration (IC50) at 24 h in data set [1] is greater than 100 µM.

On to `Nc1noc2nc(C(F)(F)F)ccc12` [Compound 47, 6-(Trifluoromethyl)isoxazolo[5,4-b]pyridin-3-amine], for which the IC50 in data set [4] was less than 1 µM; in data set [2], 1 to 10 µM. Besides, the IC50 at 24 h in data set [1] is greater than 100 µM.

Turning to `Nc1noc2ncc([N+](=O)[O-])cc12` [Compound 49, 5-Nitroisoxazolo[5,4-b]pyridin-3-amine], in data set [1], the 50% inhibitory concentration (IC50) at 24 h is greater than 100 µM. In addition, the IC50 in data set [2] was less than 1 µM.

As to `Nc1noc2nc(Cl)c(Cl)cc12` [Compound 67, 5,6-Dichloroisoxazolo[5,4-b]pyridin-3-amine], the IC50 at 24 h in data set [1] is greater than 100 µM. Further, in data set [2], the IC50 is less than 1 µM.

In the case of `Nc1noc2nc(-c3cccs3)ccc12` [Compound 74, 6-(2-Thienyl)isoxazolo[5,4-b]pyridin-3-amine], the figures for the 50% inhibitory concentration (IC50) in data set [4] and in data set [2] were greater than 100 µM and 10 to 100 µM, respectively. For the same compound, the IC50 at 24 h in data set [1] is greater than 100 µM.

As for `Nc1noc2nc(Oc3ccccc3Cl)ccc12` [Compound 84, 6-(2-Chlorophenoxy)isoxazolo[5,4-b]pyridin-3-amine], the IC50 at 24 h in data set [1] is greater than 100 µM. The half-inhibitory concentration (IC50) in data set [2] fell in the range of 1 to 10 µM.

Take `Nc1noc2nc(Oc3ccc(OC(F)(F)F)cc3)ccc12` [Compound 89, 6-(4-(Trifluoromethoxy)phenoxy)isoxazolo[5,4-b]pyridin-3-amine]: in data set [1], the IC50 at 24 h was greater than 100 µM.

`COc1cccc(Nc2ccc3c(N)noc3n2)c1` [Compound 95, N^6-(3-Methoxyphenyl)isoxazolo[5,4-b]pyridine-3,6-diamine]: the figures for the IC50 in data set [4], in data set [3] and in data set [2] were greater than 100 µM, 10 to 100 µM and 10 to 100 µM, respectively. Besides, in data set [1], the half-maximal inhibitory concentration (IC50) at 24 h is greater than 100 µM.

With `N.N.O=C([O-])C1(C(=O)[O-])CCC1.[Pt+2]` [carboplatin], in data set [5] (LLC-CR cells), the “GI50 concentration in resistant clones” value is 1.3 µg/mL. The “fold resistance of LLC-CR” value in data set [5] (LLC-CR versus parental LLC) is given as 3-5 fold.
